Assay results as given in patent US20120095029A1, “IPP COMPLEX AS MARKER FOR ERLOTINIB TREATMENT” (Hoffmann-La Roche Inc., priority 2010, published 2012).
Counter-ions that a name gives are not always drawn.

How the values were obtained:
H358 cells = assay: Testing EMT transition on H358 NSCLC cell line (TGFbeta3 treatment, western blot); format: cell-based, human; conditions: 10 ng/mL TGFbeta3 plus compound 5 μM; for Level of E-cadherin: up to 13 days
Protocol: Cell culture medium was renewed every 3 days. Cell lysis was performed in PBS containing 1% NP-40 and protease inhibitors. After clearing by centrifugation at 12,000 g for 15 min at 4° C., proteins were separated by SDS-PAGE and processed for western blot analysis. Images were acquired using a compact digital camera (Luminescent Image Analyzer: Fujifilm, Tokyo, Japan) and quantified with ImageQuant TL (GE Healthcare, Waukesha, Wis., USA).

ILK = ILK (Homo sapiens, UniProt Q13418); conditions: H292 cell lysate preincubated with free compound (0-400 μM), then beads with immobilized compound
PINCH = PINCH (Homo sapiens, UniProt P48059); conditions: H292 cell lysate preincubated with free compound (0-400 μM), then beads with immobilized compound
alpha-parvin = alpha-parvin (Homo sapiens, UniProt Q9NVD7); conditions: H292 cell lysate preincubated with free compound (0-400 μM), then beads with immobilized compound
NSCLC patients [1] = conditions: single agent; patients for whom standard therapy for advanced disease has failed; cited from earlier work
NSCLC patients [2] = conditions: unselected patient population; cited from earlier work
patients with NSCLC = conditions: second line after cisplatin-based first-line regimens failed; ECOG 0, 1 or 2; cited from earlier work
NSCLC = conditions: second line therapy of NSCLC; cited from earlier work

Chain of PINCH (P48059 2-325): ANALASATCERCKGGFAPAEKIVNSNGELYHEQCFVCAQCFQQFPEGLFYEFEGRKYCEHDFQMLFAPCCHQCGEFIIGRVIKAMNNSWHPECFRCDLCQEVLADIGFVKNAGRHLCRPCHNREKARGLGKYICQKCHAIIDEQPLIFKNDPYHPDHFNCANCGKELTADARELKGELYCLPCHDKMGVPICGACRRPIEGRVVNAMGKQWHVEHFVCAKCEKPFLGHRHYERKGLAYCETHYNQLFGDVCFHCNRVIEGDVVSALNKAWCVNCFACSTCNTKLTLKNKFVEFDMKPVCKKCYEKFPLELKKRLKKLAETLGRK
Chain of PINCH (Q13418 whole entry partner): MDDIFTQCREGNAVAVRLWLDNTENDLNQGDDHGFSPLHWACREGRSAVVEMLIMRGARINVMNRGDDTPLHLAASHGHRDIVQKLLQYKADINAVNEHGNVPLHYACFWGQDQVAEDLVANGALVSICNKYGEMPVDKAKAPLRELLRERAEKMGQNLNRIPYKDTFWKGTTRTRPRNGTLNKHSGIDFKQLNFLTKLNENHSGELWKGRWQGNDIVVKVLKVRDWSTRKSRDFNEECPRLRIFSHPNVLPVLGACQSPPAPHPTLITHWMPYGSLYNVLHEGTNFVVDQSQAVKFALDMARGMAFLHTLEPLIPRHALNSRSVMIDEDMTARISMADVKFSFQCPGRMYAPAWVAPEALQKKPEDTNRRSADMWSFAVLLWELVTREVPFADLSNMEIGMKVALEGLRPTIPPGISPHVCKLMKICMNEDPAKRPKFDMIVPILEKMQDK
Chain of PINCH (Q9NVD7 2-372 partner): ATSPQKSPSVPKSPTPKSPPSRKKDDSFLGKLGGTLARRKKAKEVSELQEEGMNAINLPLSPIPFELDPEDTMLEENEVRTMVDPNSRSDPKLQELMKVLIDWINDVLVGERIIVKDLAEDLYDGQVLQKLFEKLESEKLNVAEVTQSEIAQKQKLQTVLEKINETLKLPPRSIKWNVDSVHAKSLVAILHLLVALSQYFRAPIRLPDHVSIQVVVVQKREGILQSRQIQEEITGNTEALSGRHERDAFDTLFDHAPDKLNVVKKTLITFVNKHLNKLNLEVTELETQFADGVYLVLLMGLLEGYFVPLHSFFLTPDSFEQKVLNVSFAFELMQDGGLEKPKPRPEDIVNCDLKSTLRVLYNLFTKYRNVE
Chain of alpha-parvin (Q9NVD7 2-372 limits assumed): as the sequence (Q9NVD7 2-372 partner) above
Chain of alpha-parvin (Q13418 whole entry partner): as the sequence (Q13418 whole entry partner) above
Chain of alpha-parvin (P48059 2-325 partner limits assumed): as the sequence (P48059 2-325) above
Chain of ILK (Q13418 whole entry): as the sequence (Q13418 whole entry partner) above

Structure (SMILES)	ILK expression level (H358 cells)	PINCH expression level (H358 cells)	Level of E-cadherin (H358 cells)	Signal Reduction (%) ILK (ILK)	Signal Reduction (%) PINCH (PINCH)	Signal Reduction (%) alpha-parvin (alpha-parvin)	Survival of NSCLC patients (NSCLC patients [1])	Clinical benefit (NSCLC patients [2])	Survival (patients with NSCLC)	Efficacy compared with docetaxel (NSCLC)	Side effects compared with docetaxel (NSCLC)
C#Cc1cccc(Nc2ncnc3cc(OCCOC)c(OCCOC)cc23)c1 [Erlotinib hydrochloride, erlotinib hydrochloride]	do not change	do not change	remained unchanged	77.3%	87.7%	79.5%	significantly prolongs and improves the survival				
COc1cc2ncnc(Nc3ccc(F)c(Cl)c3)c2cc1OCCCN1CCOCC1 [Gefitinib, gefitinib]	not so pronounced	not so pronounced	fails to inhibit the TGFb3-mediated decrease of E-cadherin levels		0.0%	0.0%		does not seem to confer clinical benefit			
CC(=O)O[C@@]12CO[C@@H]1C[C@H](O)[C@@]1(C)C(=O)[C@H](O)C3=C(C)[C@@H](OC(=O)[C@H](O)[C@@H](NC(=O)OC(C)(C)C)c4ccccc4)C[C@@](O)([C@@H](OC(=O)c4ccccc4)[C@H]21)C3(C)C [docetaxel]									improved survival		
Nc1nc2[nH]cc(CCc3ccc(C(=O)N[C@@H](CCC(=O)O)C(=O)O)cc3)c2c(=O)[nH]1 [pemetrexed]										clinically equivalent efficacy	significantly fewer side effects
